Assay results as given in patent US10100058B2, “Fused heterocyclic compounds as CaM kinase inhibitors” (Gilead Sciences, Inc., priority 2016, dated 2018).

Molecular target: recombinant CaMKIIδ (Homo sapiens (Human), UniProt Q13557)
Assay: CaMKIIδ biochemical assay (HTRF)
Details: 10 pM CaMKIIδ, 110 nM calmodulin, 12 μM ATP, 1 hour; read-out: CAMKIID-HTRF-384V2 (IC50 - nM)
Description: CaMKIIδ Biochemical Assay
The biochemical activity of recombinant CaMKIIδ was measured by monitoring the phosphorylation of a target peptide using Homogenous Time Resolved Fluorescence (HTRF) technology from CisBio Bioassays.

Row | IC50 [nM] | Compound
1 | 0.86 | CCN(CC)CCNC(=O)c1cc(-c2cnn3ccc(-c4cccs4)nc23)nc(N2CC(OC)C2)c1 [Example 254, N-(2-(diethylamino)ethyl)-2-(3-methoxyazetidin-1-yl)-6-(5-(thiophen-2-yl)pyrazolo[1,5-a]pyrimidin-3-yl)isonicotinamide]
2 | 33.9 | COC1CN(c2cc(C(=O)NC[C@@H]3CCCN3)cc(-c3cnn4ccc(-c5cccs5)nc34)n2)C1 [Example 255, (S)-2-(3-methoxyazetidin-1-yl)-N-(pyrrolidin-2-ylmethyl)-6-(5-(thiophen-2-yl)pyrazolo[1,5-a]pyrimidin-3-yl)isonicotinamide]
3 | 2.42 | CCN1CCC[C@H]1CNC(=O)c1cc(-c2cnn3ccc(-c4cccs4)nc23)nc(N2CC(OC)C2)c1 [Example 256, (S)—N-((1-ethylpyrrolidin-2-yl)methyl)-2-(3-methoxyazetidin-1-yl)-6-(5-(thiophen-2-yl)pyrazolo[1,5-a]pyrimidin-3-yl)isonicotinamide]
4 | 284 | COC1CN(c2cc(C(=O)NC[C@@H]3CCCN3C)cc(-c3cnn4ccc(-c5cccs5)nc34)n2)C1 [Example 257, (S)-2-(3-methoxyazetidin-1-yl)-N-((1-methylpyrrolidin-2-yl)methyl)-6-(5-(thiophen-2-yl)pyrazolo[1,5-a]pyrimidin-3-yl)isonicotinamide]
5 | 1.07 | CCN(CC)CCNC(=O)c1cc(-c2cnn3ccc(-c4cccs4)nc23)nc(N2CC(C)(O)C2)c1 [Example 258, N-(2-(diethylamino)ethyl)-2-(3-hydroxy-3-methylazetidin-1-yl)-6-(5-(thiophen-2-yl)pyrazolo[1,5-a]pyrimidin-3-yl)isonicotinamide]
6 | 1.02 | CCN(CC)CCNC(=O)c1cc(NCCO)nc(-c2cnn3ccc(-c4cccs4)nc23)c1 [Example 259, N-(2-(diethylamino)ethyl)-2-((2-hydroxyethyl)amino)-6-(5-(thiophen-2-yl)pyrazolo[1,5-a]pyrimidin-3-yl)isonicotinamide]
7 | 1.71 | CCN(CC)c1cc(C(=O)NC[C@H](C)N(CC)CC)cc(-c2cnn3ccc(-c4cccs4)nc23)n1 [Example 260, (S)-2-(diethylamino)-N-(2-(diethylamino)propyl)-6-(5-(thiophen-2-yl)pyrazolo[1,5-a]pyrimidin-3-yl)isonicotinamide]

Second part, the molecule before the results:

Row | Compound | IC50 [nM]
8 | CCN(CC)[C@@H](C)CNC(=O)c1cc(N[C@@H](C)C(=O)NC)nc(-c2cnn3ccc(-c4cccs4)nc23)c1 [Example 240, N—((S)-2-(diethylamino)propyl)-2-(((S)-1-(methylamino)-1-oxopropan-2-yl)amino)-6-(5-(thiophen-2-yl)pyrazolo[1,5-a]pyrimidin-3-yl)isonicotinamide] | 1.07
9 | CCN(CC)[C@@H](C)CNC(=O)c1cc(Nc2ncc[nH]2)nc(-c2cnn3ccc(-c4cccs4)nc23)c1 [Example 241, (S)-2-((1H-imidazol-2-yl)amino)-N-(2-(diethylamino)propyl)-6-(5-(thiophen-2-yl)pyrazolo[1,5-a]pyrimidin-3-yl)isonicotinamide] | 1.87
10 | CCN(CC)[C@@H](C)CNC(=O)c1cc(NCCS(N)(=O)=O)nc(-c2cnn3ccc(-c4cccs4)nc23)c1 [Example 242, (S)—N-(2-(diethylamino)propyl)-2-((2-sulfamoylethyl)amino)-6-(5-(thiophen-2-yl)pyrazolo[1,5-a]pyrimidin-3-yl)isonicotinamide] | 0.07
11 | CCN(CC)[C@@H](C)CNC(=O)c1cc(-c2cnn3ccc(-c4cccs4)nc23)nc(N2C[C@H](O)[C@@H](O)C2)c1 [Example 243, N—((S)-2-(diethylamino)propyl)-2-((3S,4S)-3,4-dihydroxypyrrolidin-1-yl)-6-(5-(thiophen-2-yl)pyrazolo[1,5-a]pyrimidin-3-yl)isonicotinamide] | 0.14
12 | CCN(CC)[C@@H](C)CNC(=O)c1cc(-c2cnn3ccc(-c4cccs4)nc23)nc(N2CC(CO)(CO)C2)c1 [Example 244, (S)-2-(3,3-bis(hydroxymethyl)azetidin-1-yl)-N-(2-(diethylamino)propyl)-6-(5-(thiophen-2-yl)pyrazolo[1,5-a]pyrimidin-3-yl)isonicotinamide] | 0.16
13 | CCN[C@@H](C)CNC(=O)c1cc(-c2cnn3ccc(-c4cccs4)nc23)nc(N2CC(C)(O)C2)c1 [Example 245, (S)—N-(2-(ethylamino)propyl)-2-(3-hydroxy-3-methylazetidin-1-yl)-6-(5-(thiophen-2-yl)pyrazolo[1,5-a]pyrimidin-3-yl)isonicotinamide] | 9.25
14 | CCN(CC)[C@@H](C)CNC(=O)c1cc(NCC(=O)NC)nc(-c2cnn3ccc(-c4cccs4)nc23)c1 [Example 246, (S)—N-(2-(diethylamino)propyl)-2-((2-(methylamino)-2-oxoethyl)amino)-6-(5-(thiophen-2-yl)pyrazolo[1,5-a]pyrimidin-3-yl)isonicotinamide] | 0.17
15 | CCN(CC)[C@@H](C)CNC(=O)c1cc(-c2cnn3ccc(-c4cccs4)nc23)nc(N2CCC(OC)CC2)c1 [Example 247, (S)—N-(2-(diethylamino)propyl)-2-(4-methoxypiperidin-1-yl)-6-(5-(thiophen-2-yl)pyrazolo[1,5-a]pyrimidin-3-yl)isonicotinamide] | 0.46
16 | CCN(CC)[C@@H](C)CNC(=O)c1cc(-c2cnn3ccc(-c4cccs4)nc23)nc(N2CC(C)(N(C)C)C2)c1 [Example 248, (S)—N-(2-(diethylamino)propyl)-2-(3-(dimethylamino)-3-methylazetidin-1-yl)-6-(5-(thiophen-2-yl)pyrazolo[1,5-a]pyrimidin-3-yl)isonicotinamide] | 0.21
17 | CCN(CC)[C@@H](C)CNC(=O)c1cc(-c2cnn3ccc(-c4cccs4)nc23)nc(N2CC3(CCC3(F)F)C2)c1 [Example 249, (S)—N-(2-(diethylamino)propyl)-2-(5,5-difluoro-2-azaspiro[3.3]heptan 2 yl)-6-(5-(thiophen-2-yl)pyrazolo[1,5-a]pyrimidin-3-yl)isonicotinamide] | 0.2
18 | CCN(CC)[C@@H](C)CNC(=O)c1cc(-c2cnn3ccc(-c4cccs4)nc23)nc(N2CCC23CCC3)c1 [Example 250, (S)—N-(2-(diethylamino)propyl)-2-(1-azaspiro[3.3]heptan-1-yl)-6-(5-(thiophen-2-yl)pyrazolo[1,5-a]pyrimidin-3-yl)isonicotinamide] | 1.61
19 | CCN(CC)[C@@H](C)CNC(=O)c1cc(-c2cnn3ccc(-c4cccs4)nc23)nc(N2CCC[C@@H]2C(F)(F)F)c1 [Example 251, N—((S)-2-(diethylamino)propyl)-2-(5-(thiophen-2-yl)pyrazolo[1,5-a]pyrimidin-3-yl)-6-((R)-2-(trifluoromethyl)pyrrolidin-1-yl)isonicotinamide] | 2.05
20 | CCN(CC)[C@@H](C)CNC(=O)c1cc(-c2cnn3ccc(-c4cccs4)nc23)nc(-n2cncn2)c1 [Example 252, (S)—N-(2-(diethylamino)propyl)-2-(5-(thiophen-2-yl)pyrazolo[1,5-a]pyrimidin-3-yl)-6-(1H-1,2,4-triazol-1-yl)isonicotinamide] | 1.87
21 | CCN(CC)[C@@H](C)CNC(=O)c1cc(-c2cnn3ccc(-c4cccs4)nc23)nc(N2C[C@@H]3C[C@H]2CO3)c1 [Example 253, 2-((1S,4S)-2-oxa-5-azabicyclo[2.2.1]heptan-5-yl)-N—((S)-2-(diethylamino)propyl)-6-(5-(thiophen-2-yl)pyrazolo[1,5-a]pyrimidin-3-yl)isonicotinamide] | 0.38
